Data published in ChEMBL document CHEMBL5625179, “2-Substituted quinazolines: Partial agonistic and antagonistic ligands of the constitutive androstane receptor (CAR)” (Eur J Med Chem, 2023).
pEC50, pIC50: −log10 of the molar value.

Key:
Assay type in all cases: cell-based; call rule not given here
[1] = molecular target: T1, Nuclear receptor subfamily 1 group I member 3 (Homo sapiens, UniProt Q14994); assay: Activation of human CAR LBD expressed in human HepG2 cells at 30 uM incubated for 24 hrs by dual luciferase reporter assay relative to CITCO; details: hepg2, 24 h
T1 sequence (Q14994 whole entry): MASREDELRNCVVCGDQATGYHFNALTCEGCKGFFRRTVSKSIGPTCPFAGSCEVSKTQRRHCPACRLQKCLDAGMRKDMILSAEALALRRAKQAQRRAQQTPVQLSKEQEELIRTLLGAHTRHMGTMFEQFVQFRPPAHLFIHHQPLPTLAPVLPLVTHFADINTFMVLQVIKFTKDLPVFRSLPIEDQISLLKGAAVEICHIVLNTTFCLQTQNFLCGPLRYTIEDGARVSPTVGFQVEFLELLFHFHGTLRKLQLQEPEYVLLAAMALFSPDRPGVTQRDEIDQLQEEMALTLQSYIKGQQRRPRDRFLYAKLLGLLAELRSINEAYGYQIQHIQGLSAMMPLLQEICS

[2] = molecular target: T1, Nuclear receptor subfamily 1 group I member 3; assay: Activation of human CAR3 expressed in human HepG2 cells at 30 uM incubated for 24 hrs by dual luciferase gene reporter assay relative to CITCO; details: hepg2, 24 h
[3] = molecular target: T1, Nuclear receptor subfamily 1 group I member 3; assay: Antagonist activity at human CAR LBD expressed in human HepG2 cells at 30 uM incubated for 24 hrs in presence of CITCO by dual luciferase reporter assay; details: hepg2, 24 h
[4] = molecular target: T1, Nuclear receptor subfamily 1 group I member 3; assay: Antagonist activity at human CAR LBD expressed in human HepG2 cells incubated for 24 hrs in presence of CITCO by dual luciferase reporter assay
[5] = molecular target: T1, Nuclear receptor subfamily 1 group I member 3; assay: Partial agonist activity at human CAR LBD (151 to 349 residues) expressed in HepG2 cells coexpressed with pGL5-luc luciferase measured after 1 to 4 hrs by LanthaScreen TR-FRET assay; details: for Activity: human, hepg2, time 1-4 hrs
[6] = molecular target: T1, Nuclear receptor subfamily 1 group I member 3; assay: Antagonist activity at human CAR LBD (151 to 349 residues) expressed in HepG2 cells co-expressed with pGL5-luc luciferase assessed as reduction in CAR activation measured after 1 to 4 hrs by LanthaScreen TR-FRET assay; details: time 1-4 hrs
[7] = molecular target: T1, Nuclear receptor subfamily 1 group I member 3; assay: Antagonist activity at human CAR LBD (151 to 349 residues) expressed in HepG2 cells co-expressed with pGL5-luc luciferase assessed as reduction in CAR activation measured after 1 to 4 hrs in presence of CITCO by LanthaScreen TR-FRET assay
CAR (NR1I3) LBD [8] = molecular target: T2, CAR (NR1I3) LBD (Homo sapiens, UniProt Q14994); assay: Antagonist activity at human CAR LBD expressed in human HepG2 cells at 30 uM incubated for 24 hrs by dual luciferase reporter assay relative to CITCO; design: scale not given: the % may be the effect or the level left; details: HepG2 cells expressing human CAR LBD, read-out: Activity
T2 sequence (Q14994 whole entry): T1 sequence (Q14994 whole entry)

CAR3 (NR1I3) = molecular target: T3, CAR3 (NR1I3) (Homo sapiens, UniProt Q14994); assay: Antagonist activity at human CAR3 expressed in human HepG2 cells at 30 uM incubated for 24 hrs by dual luciferase gene reporter assay relative to CITCO; design: scale not given: the % may be the effect or the level left; details: HepG2 cells expressing human CAR3, read-out: Activity
T3 sequence (Q14994 whole entry): T1 sequence (Q14994 whole entry)

CAR (NR1I3) LBD [9] = molecular target: T2, CAR (NR1I3) LBD; assay: Partial agonist activity at human CAR LBD expressed in human HepG2 cells at 30 uM incubated for 24 hrs by dual luciferase reporter assay relative to CITCO; details: HepG2 cells expressing human CAR LBD, read-out: Activity
[10] = molecular target: T1, Nuclear receptor subfamily 1 group I member 3; assay: Partial agonist activity human CAR3 expressed in human HepG2 cells at 30 uM incubated for 24 hrs by dual luciferase gene reporter assay relative to CITCO; details: hepg2, 24 h

Activity [1] [%]	Activity [2] [%]	Compound	also measured
3	28	COc1ccc(-c2nc(O)c3ccccc3n2)cc1OC	
5	34	Cc1cccc(-c2nc(O)c3ccccc3n2)c1	
-3	15	COc1nc(-c2cccc([N+](=O)[O-])c2)nc2ccccc12	
		Sc1nc(-c2ccc(Br)cc2)nc2ccccc12	Activity [3]: Active; pIC50 [4]: 4.52; Activity [5]: Not Active; Activity [6]: Not Active; pIC50 [7]: 4.02; activity at 24 h, 30 µM (CAR (NR1I3) LBD [8]): 1%; activity at 24 h, 30 µM (CAR3 (NR1I3)): 44%
-6	10	Oc1nc(-c2ccc(F)cc2)nc2ccccc12	
3	12	O=c1[nH]c(-c2ccc(Br)cc2)nc2ccccc12	
-8	12	O=c1[nH]c(-c2ccc(C(F)(F)F)cc2)nc2ccccc12	
3	33	COc1ccc(-c2nc3ccccc3c(=O)[nH]2)cc1	
-2	3	O=c1[nH]c(-c2ccc3c(c2)OCO3)nc2ccccc12	
-5	7	CC(C)(C)c1ccc(-c2nc3ccccc3c(=O)[nH]2)cc1	
1	11	O=[N+]([O-])c1cccc(-c2nc3ccccc3c(=S)[nH]2)c1	
-6	15	COc1ccc(-c2nc3ccccc3c(=O)n2C)cc1OC	
-5	5	COc1nc(-c2cccc(F)c2)nc2ccccc12	
-4	13	COc1ccc(-c2nc3ccccc3c(=S)[nH]2)cc1OC	
1	9	CC(C)(C)c1ccc(-c2nc3ccccc3c(=S)[nH]2)cc1	
-8	22	Cn1c(-c2ccc(OC(F)(F)F)cc2)nc2ccccc2c1=O	Activity [3]: Active; Activity [5]: Not Active; Activity [6]: Not Active
-6	9	O=c1[nH]c(-c2ccc(Cl)c(Cl)c2)nc2ccccc12	
6	15	S=c1[nH]c(-c2cccc(Cl)c2)nc2ccccc12	
		CSc1nc(-c2cccc(C)c2)nc2ccccc12	Activity [3]: Active; pEC50 [5]: 4.98; activity at 24 h, 30 µM (CAR (NR1I3) LBD [9]): 36.3%; Activity [10]: 44%
-3	5	COc1nc(-c2ccc(OC(F)(F)F)cc2)nc2ccccc12	
-5	13	Cn1c(-c2ccc(F)cc2)nc2ccccc2c1=O	
-3	13	Cc1cccc(-c2nc3ccccc3c(=O)n2C)c1	
